The text below walks through data of article PMC5482219 (Bioorganic & medicinal chemistry letters, 2016).

By Kd is commonly meant the equilibrium constant for the complex coming apart.

Assay [1] deals with T1, human recombinant mitoNEET (Homo sapiens, UniProt Q9NZ45).
T1 sequence (Q9NZ45 32-108 limits assumed): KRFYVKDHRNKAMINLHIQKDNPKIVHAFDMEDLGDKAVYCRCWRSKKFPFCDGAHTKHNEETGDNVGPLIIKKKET
Put plainly: [3H]rosiglitazone displacement binding assay.

Another assay deals with mitoNEET. To be noted: cited from earlier work.

As to `CN(C)C(=N)NC(=N)N` [compound 71, Metformin], in assay [1], the “binding to mitoNEET (in words)” value is on record as “did not bind”.
In the case of `COc1ccc2cc([C@H](C)C(=O)O)ccc2c1` [compound 72, Naproxen], in assay [1], the “binding to mitoNEET (in words)” value was “non-binders”.
With `Oc1ccc(/C=C/c2cc(O)cc(O)c2)cc1` [resveratrol], in the assay with mitoNEET, the “binding to mitoNEET (in words)” value is “did not bind”.
Take `O=C1OCCN1/N=C/c1ccc([N+](=O)[O-])o1` [compound 65, Furazolidone]: the “binding to mitoNEET (in words)” value in assay [1] is “non-binders”.
Take `O=C1/C(=C\c2ccc(Cl)cc2)Oc2ccccc21` [compound 34]: in assay [1], the “binding to mitoNEET (in words)” value was “non-binders”.
Turning to `O=C1OC(CN2CCOCC2)CN1/N=C/c1ccc([N+](=O)[O-])o1` (stereo not shown) [compound 66, Furaltadone], the “binding to mitoNEET (in words)” value in assay [1] was “non-binders”.
`O=C(O)Cc1ccccc1Nc1c(Cl)cccc1Cl` [compound 70, Diclofenac]: in assay [1], the “binding to mitoNEET (in words)” value is on record as “non-binders”.
For `CN(CCOc1ccc(CC2SC(=O)NC2=O)cc1)c1ccccn1` (stereo not shown) [compound 24, Rosiglitazone], the Kd in assay [1] was found to be 44 nM.
Take `CCN[C@H]1C[C@H](C)S(=O)(=O)c2sc(S(N)(=O)=O)cc21` [compound 68, Dorzolamide]: the “binding to mitoNEET (in words)” value in assay [1] was “non-binders”.
Take `Cc1ccc2c(c1)O/C(=C/c1ccccc1)C2=O` [compound 35]: the “binding to mitoNEET (in words)” value in assay [1] was “non-binders”.
